According to patent US20230158025A1 (UNIVERSITY OF UTAH RESEARCH FOUNDATION, priority 2020, published 2023):
Where two headings read alike, the source gives them in different places.

Legend:
[1] = aqueous kinetic solubility
recombinant mouse GALK1 = recombinant mouse GALK1 (Mus musculus, UniProt Q9R0N0); assay: mGALK1 biochemical activity assay (Kinase-Glo Plus, ATP depletion)
Outline: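 Recombinant GALK1 (5 nM) with 100 μM galactose; GALK1 turnover read as ATP depletion by Kinase-Glo Plus luminescence. Reaction ran 1 h at room temperature before detection reagent was added.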

[2] = rat microsomal stability (RLM)
recombinant human GALK1 = recombinant human GALK1 (Homo sapiens, UniProt P51570); assay: hGALK1 biochemical activity assay (Kinase-Glo Plus, ATP depletion)
Chain of recombinant human GALK1 (P51570 whole entry): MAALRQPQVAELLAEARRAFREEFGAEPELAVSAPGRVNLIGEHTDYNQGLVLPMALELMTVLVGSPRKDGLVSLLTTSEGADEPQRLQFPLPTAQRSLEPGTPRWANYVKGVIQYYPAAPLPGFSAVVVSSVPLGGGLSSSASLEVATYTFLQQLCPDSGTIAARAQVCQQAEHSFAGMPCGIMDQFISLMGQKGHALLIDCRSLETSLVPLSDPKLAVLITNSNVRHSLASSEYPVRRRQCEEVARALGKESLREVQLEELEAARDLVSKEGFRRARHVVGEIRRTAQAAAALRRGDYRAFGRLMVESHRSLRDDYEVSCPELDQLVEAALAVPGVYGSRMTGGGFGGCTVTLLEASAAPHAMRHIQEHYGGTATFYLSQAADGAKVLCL
Outline: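 Turnover is measured as ATP depletion by Kinase-Glo Plus luminescence after a 1 h room-temperature reaction. Compounds span 11 concentrations, 57.4 μM–0.97 nM, in final 20 mM HEPES pH 8.0 with 5 mM MgCl2. The substrate solution held 35 μM ATP; the added solution held 5 nM human or mouse GALK1 and 100 μM galactose.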

[3] = Tables 2-15, 35 μM ATP, 100 μM galactose, 1 h, bracketed figure after some values is undefined and not reported, read-out: mGALK IC50
[4] = recombinant mouse GALK1, Kinase-Glo Plus ATP depletion, read-out: mGALK
[5] = recombinant human GALK1, Kinase-Glo Plus ATP depletion, read-out: hGALK
[6] = Tables 2-15, 35 μM ATP, 100 μM galactose, 1 h, bracketed figure after some values (e.g. −1.2) is undefined and not reported, read-out: hGALK IC50

Chain of recombinant mouse GALK1 (Q9R0N0 whole entry): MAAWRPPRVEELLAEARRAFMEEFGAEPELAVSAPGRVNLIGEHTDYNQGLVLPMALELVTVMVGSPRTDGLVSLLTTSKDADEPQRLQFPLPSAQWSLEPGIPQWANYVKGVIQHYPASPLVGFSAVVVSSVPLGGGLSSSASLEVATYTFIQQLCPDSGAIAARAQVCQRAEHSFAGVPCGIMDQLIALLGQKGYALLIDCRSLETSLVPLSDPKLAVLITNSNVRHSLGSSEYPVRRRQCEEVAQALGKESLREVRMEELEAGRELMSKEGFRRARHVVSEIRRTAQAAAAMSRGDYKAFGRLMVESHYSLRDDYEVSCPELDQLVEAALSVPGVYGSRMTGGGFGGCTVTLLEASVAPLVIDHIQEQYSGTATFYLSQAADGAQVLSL

Sol. [1]	Perm. (1 × 10^−6 cm/sec) (PAMPA permeability)	IC50 (recombinant mouse GALK1; [3])	IC50 (recombinant mouse GALK1; [4])	Metab. Stabil. (m) ([2]; microsomal half-life)	IC50 (recombinant human GALK1; [5])	Sol. ([1]; aqueous kinetic solubility)	Perm. (1 × 10^−6 cm/sec) (PAMPA permeability; PAMPA)	IC50 (recombinant mouse GALK1; recombinant mouse GALK1, Kinase-Glo Plus ATP depletion, bracketed figure in the cell, e.g. (−1.2), is not defined in the text shown, read-out: mGALK)	Metab. Stabil. (m) ([2]; microsomal stability half-life, minutes)	IC50 (recombinant human GALK1; recombinant human GALK1, Kinase-Glo Plus ATP depletion, bracketed figure in the cell, e.g. (−1.2), is not defined in the text shown, read-out: hGALK)	IC50 (recombinant human GALK1; [6])	Metab. Stabil. (m) ([2]; microsomal stability half-life)	SMILES
>79 µg/mL	<1 1 × 10^−6 cm/sec	21.7 µM	21.7 µM	>30 m	21.7 µM	–	–	–	–	–	–	–	COc1ccc2nc(NC3=NC(c4ccccc4Cl)C(C(=O)Nc4cc(C(=O)O)ccn4)=C(C)N3)oc2c1 (stereo not shown) [Compound 7, 2-(4-(2-chlorophenyl)-6-methyl-2-((6-methoxybenzo[d]oxazol-2-yl)amino)-1,4-dihydropyrimidine-5-carboxamido)isonicotinic acid]
–	–	–	–	–	–	<1 µg/mL	31.9 1 × 10^−6 cm/sec	5.44 µM	>30 m	3.85 µM	–	–	COc1ccc(C2N=C(Nc3nc4ccccc4o3)NC(C)=C2C(=O)Nc2nncs2)c(Cl)c1 (stereo not shown) [Compound 266, 2-(benzo[d]oxazol-2-ylamino)-4-(2-chloro-4-methoxyphenyl)-6-methyl-N-(1,3,4-thiadiazol-2-yl)-1,4-dihydropyrimidine-5-carboxamide]
<1 µg/mL	<1 1 × 10^−6 cm/sec	–	9.68 µM	>30 m	1.37 µM	–	–	–	–	–	–	–	CC1=C(C(=O)Nc2cc(-c3nn[nH]n3)ccn2)C(c2ccc(C)cc2Cl)N=C(Nc2nc3ccc(F)cc3o2)N1 (stereo not shown) [Compound 88, N-(4-(2H-tetrazol-5-yl)pyridin-2-yl)-4-(2-chloro-4-methylphenyl)-2-((6-fluorobenzo[d]oxazol-2-yl)amino)-6-methyl-1,4-dihydropyrimidine-5-carboxamide]
<1 µg/mL	103.8 1 × 10^−6 cm/sec	5.44 µM	5.44 µM	6.732 m	0.39 µM	–	–	–	–	–	0.39 µM	–	CC1=C(C(=O)NCc2cnn(Cc3ccccc3)c2)C(c2ccc(C)cc2Cl)N=C(Nc2nc3cccc(N)c3o2)N1 (stereo not shown) [Compound 114, 2-((7-aminobenzo[d]oxazol-2-yl)amino)-N-((1-benzyl-1H-pyrazol-4-yl)methyl)-4-(2-chloro-4-methylphenyl)-6-methyl-1,4-dihydropyrimidine-5-carboxamide]
11.3 µg/mL	<1 1 × 10^−6 cm/sec	3.85 µM	3.85 µM	>30 m	0.69 µM	–	–	–	–	–	0.69 µM	–	CCOc1ccc(C2N=C(Nc3nc4ccc(F)cc4o3)NC(C)=C2C(=O)Nc2cc(C(=O)O)ccn2)c(Cl)c1 (stereo not shown) [Compound 67, 2-(4-(2-chloro-4-ethoxyphenyl)-2-((6-fluorobenzo[d]oxazol-2-yl)amino)-6-methyl-1,4-dihydropyrimidine-5-carboxamido)isonicotinic acid]
–	–	9.68 µM	9.68 µM	–	3.06 µM	<1 µg/mL	109.6 1 × 10^−6 cm/sec	–	–	–	3.06 µM	>30 m	CC1=C(C(=O)Nc2cc(CO)ccn2)C(c2ccccc2Cl)N=C(Nc2nc3ccccc3o2)N1 (stereo not shown) [Compound 211, 2-(benzo[d]oxazol-2-ylamino)-4-(2-chlorophenyl)-N-(4-(hydroxymethyl)pyridin-2-yl)-6-methyl-1,4-dihydropyrimidine-5-carboxamide]
–	–	15.3 µM	15.3 µM	–	–	<1 µg/mL	867.3 1 × 10^−6 cm/sec	–	–	–	6.85 µM	13.8241 m	CC1=C(C(=O)NCc2ccc(CO)cc2)C(c2ccccc2Cl)N=C(Nc2nc3ccccc3o2)N1 (stereo not shown) [Compound 228, 2-(benzo[d]oxazol-2-ylamino)-4-(2-chlorophenyl)-N-(4-(hydroxymethyl)benzyl)-6-methyl-1,4-dihydropyrimidine-5-carboxamide]
–	–	17.2 µM	17.2 µM	–	3.85 µM	<1 µg/mL	1038.5 1 × 10^−6 cm/sec	–	–	–	–	7.708 m	CC1=C(C(=O)Nc2ccccc2CO)C(c2ccccc2Cl)N=C(Nc2nc3ccccc3o2)N1 (stereo not shown) [Compound 156, 2-(benzo[d]oxazol-2-ylamino)-4-(2-chlorophenyl)-N-(2-(hydroxymethyl)phenyl)-6-methyl-1,4-dihydropyrimidine-5-carboxamide]
